Data taken from PubChem BioAssay AID2060894 (Molecular Pharmacology Branch, DTP, NCI, 2025).
One block for each molecule: values may come before it.

Test system: K12877-001-R-J1-PDC complex spheroid viability
Assay: Anticancer human tumor K12877-001-R-J1-PDC patient-derived lung adenocarcinoma cell line growth inhibition [RAS]
Conditions: for IC50: curve of first compound; for viability, T/C: stronger effect = lower value
Description: RAS pathway inhibitors in Combinations in Complex Spheroids
A high-throughput screen of multi-cell type tumor spheroids was designed to identify active combinations of RAS pathway inhibitors and targeted small molecules. Complex spheroids include a stromal component modeled by human endothelial cells (HUVEC) and fibroblasts modeled by human mesenchymal stem cells (MSCs). The concentration ranges selected for each drug and investigational agent were based upon clinically achievable concentrations if the clinical Cmax of the agent was known.
Compounds. The drugs and investigational agents: abemaciclib (NSC768073), cobimetinib (NSC768068), divarasib (GDC6063, NSC841802), docetaxel (NSC628503), GDC-1971 (RLY-1971, NSC841576), gemcitabine (NSC613327), inavolisib (NSC800729), ipatasertib (NSC767898), KB-0742 (NSC834161), MRTX-1133 (NSC836407), osimertinib (NSC779217), RMC-4630 (NSC839698), RMC-6236 (NSC851965), RMC-6291 (NSC852671), Ro-3306 (NSC812927), sapanisertib (NSC764658), SN-38 (NSC673596), staurosporine (NSC755774), SY5609 (NSC837396), and tovorafenib (DAY101, NSC766906), were obtained from the National Cancer Institute (NCI) Developmental Therapeutics Program Chemical Repository. The FDA-approved anticancer drug set is available from the NCI Developmental Therapeutics Program. […] The stock solutions were prepared in dimethyl sulfoxide (DMSO, Sigma-Aldrich, St. Louis, MO, cat. D2650) at 800-fold the tested concentration and stored at -70 degrees C prior to their use. All drugs and investigational agents were tested over a range starting from a high concentration at or near the clinical Cmax and decreasing in half-log increments. If the clinical Cmax for an agent had not been determined, the highest concentration tested was 10 microM.
Cell Culture. All cells were maintained in an incubator at 37 degrees C and 5% CO2 with 95% humidity. The PDC lines were cultured according to standard operating procedures established by the NCI PDMR. All PDCs were thawed and cultured in Matrigel-coated flasks prepared with a working solution of 1X Ham's F-12 nutrient mix, without supplementation (Invitrogen, Waltham, MA, cat. 11765054), 100 U/mL penicillin-streptomycin (Invitrogen, cat. 15140122), and 2.5% Matrigel (Corning Inc., Corning, NY, cat. 354248) for the first three passages. The 362531-283-R-J2-PDC and 782815-120-R-J1-PDC lines were cultured in 6C/Colon 1B media, which includes advanced DMEM/F-12 (Thermo Fisher Scientific, cat. 12634028), 10 mM HEPES (Thermo Fisher Scientific, cat. 15630080), 1X GlutaMAX supplement (Thermo Fisher Scientific, cat. 35050061), 0.1 mg/mL primocin (InvivoGen, San Diego, CA, cat. ant-pm-2), 10% defined fetal bovine serum, heat inactivated (HyClone Laboratories Inc., Logan, UT, cat. SH30070.03HI), 50% L-WRN conditioned media (ATCC, cat. CRL-3276), 1.25 mM N-Acetyl-L-cysteine (Sigma-Aldrich, cat. A9165), 10 mM nicotinamide (Sigma-Aldrich, cat. N0636), 1X B-27 supplement (Thermo Fisher Scientific, cat. 17504044), 1X N-2 supplement (Thermo Fisher Scientific, cat. 17502048), 50 ng/mL human EGF (Thermo Fisher Scientific, cat. PHG0311), and 10 microM Y-27632 dihydrochloride (Tocris Bioscience, cat. 1254). The K12877-001-R-J1-PDC line was cultured in 6I media, which includes all 6C/Colon 1B media plus 10 ng/mL human FGF-10 (PeproTech, cat. 100-26), 1 ng/mL human FGF-2 (PeproTech, cat. 100-18B), 1 µM prostaglandin E2 (Tocris Bioscience, cat. 2296), […] hydrocortisone (Sigma-Aldrich, cat. H4001), and […] bovine insulin (Sigma-Aldrich, cat. I6634). The K86415-001-R-J1-PDC line was cultured in 6D media, which includes all 6C/Colon 1B media components minus the L-WRN conditioned media. The 485176-168-R4-J1-PDC was cultured in PANC media, which includes all 6C/Colon 1B media plus 100 ng/mL human FGF-10 (PeproTech, cat. 100-26), 500 nM SB-431542 (Selleckchem, cat. S1067), and 10 nM gastrin (Tocris Bioscience, cat. 3006). […]

[1] = second compound 0.0316 µM, first compound 0.0316 µM
[2] = second compound 0.0316 µM, first compound 0.1 µM
[3] = second compound 0.0316 µM, first compound 0.316 µM
[4] = second compound 0.0316 µM, first compound 1 µM
[5] = second compound 0.0316 µM, first compound 3.16 µM
[6] = second compound 0.0316 µM, first compound 10 µM
[7] = second compound 0.1 µM, first compound 0.0316 µM
[8] = second compound 0.1 µM, first compound 0.1 µM
[9] = second compound 0.1 µM, first compound 0.316 µM
[10] = second compound 0.1 µM, first compound 1 µM
[11] = second compound 0.1 µM, first compound 3.16 µM
[12] = second compound 0.1 µM, first compound 10 µM
[13] = second compound 0.316 µM, first compound 0.0316 µM
[14] = second compound 0.316 µM, first compound 0.1 µM
[15] = second compound 0.316 µM, first compound 0.316 µM
[16] = second compound 0.316 µM, first compound 1 µM
[17] = second compound 0.316 µM, first compound 3.16 µM
[18] = second compound 0.316 µM, first compound 10 µM
[19] = second compound 1 µM, first compound 0.0316 µM
[20] = second compound 1 µM, first compound 0.1 µM
[21] = second compound 1 µM, first compound 0.316 µM
[22] = second compound 1 µM, first compound 1 µM
[23] = second compound 1 µM, first compound 3.16 µM
[24] = second compound 1 µM, first compound 10 µM
[25] = second compound 3.16 µM, first compound 0.0316 µM
[26] = second compound 3.16 µM, first compound 0.1 µM
[27] = second compound 3.16 µM, first compound 0.316 µM
[28] = second compound 3.16 µM, first compound 1 µM
[29] = second compound 3.16 µM, first compound 3.16 µM
[30] = second compound 3.16 µM, first compound 10 µM
[31] = second compound 10 µM, first compound 0.0316 µM
[32] = second compound 10 µM, first compound 0.1 µM
[33] = second compound 10 µM, first compound 0.316 µM
[34] = second compound 10 µM, first compound 1 µM
[35] = second compound 10 µM, first compound 3.16 µM
[36] = second compound 10 µM, first compound 10 µM
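Further: spheroids exposed to agents for one week before readout.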

- IC50 (second compound 0.0316 µM): 6.15 µM
- IC50 (second compound 0.1 µM): 5.29 µM
- IC50 (second compound 0.316 µM): 7.95 µM
- IC50 (second compound 1 µM): 5.79 µM
- IC50 (second compound 3.16 µM): 6.06 µM
- IC50 (second compound 10 µM): 3.01 µM
SMILES: CC(C)NCC(C(=O)N1CCN(c2ncnc3c2C(C)CC3O)CC1)c1ccc(Cl)cc1 (stereo unspecified) + C#Cc1c(F)ccc2cc(O)cc(-c3ncc4c(N5CC6CCC(C5)N6)nc(OCC56CCCN5CC(F)C6)nc4c3F)c12
- viability, T/C [1]: 101%
- viability, T/C [2]: 95.4%
- viability, T/C [3]: 100%
- viability, T/C [4]: 86.5%
- viability, T/C [5]: 58.4%
- viability, T/C [6]: 44%
- viability, T/C [7]: 90%
- viability, T/C [8]: 103%
- viability, T/C [9]: 87.7%
- viability, T/C [10]: 96.6%
- viability, T/C [11]: 58.8%
- viability, T/C [12]: 39%
- viability, T/C [13]: 105%
- viability, T/C [14]: 103%
- viability, T/C [15]: 78.9%
- viability, T/C [16]: 92.4%
- viability, T/C [17]: 62%
- viability, T/C [18]: 45.5%
- viability, T/C [19]: 104%
- viability, T/C [20]: 103%
- viability, T/C [21]: 87.6%
- viability, T/C [22]: 95.3%
- viability, T/C [23]: 55.4%
- viability, T/C [24]: 45.1%
- viability, T/C [25]: 105%
- viability, T/C [26]: 102%
- viability, T/C [27]: 99.4%
- viability, T/C [28]: 91.1%
- viability, T/C [29]: 63.6%
- viability, T/C [30]: 39.4%
- viability, T/C [31]: 98%
- viability, T/C [32]: 93.3%
- viability, T/C [33]: 89%
- viability, T/C [34]: 94.1%
- viability, T/C [35]: 48%
- viability, T/C [36]: 32.8%

- IC50 (second compound 0.0316 µM): 4.9 µM
- IC50 (second compound 0.1 µM): 3.94 µM
- IC50 (second compound 0.316 µM): 4.32 µM
- IC50 (second compound 1 µM): 4.49 µM
- IC50 (second compound 3.16 µM): 4.63 µM
- IC50 (second compound 10 µM): 2.91 µM
SMILES: CC(Nc1ccc2c(c1)OCCn1cc(N3C(=O)OCC3C(F)F)nc1-2)C(N)=O (stereo unspecified) + C#Cc1c(F)ccc2cc(O)cc(-c3ncc4c(N5CC6CCC(C5)N6)nc(OCC56CCCN5CC(F)C6)nc4c3F)c12
- viability, T/C [1]: 97.5%
- viability, T/C [2]: 88.9%
- viability, T/C [3]: 80.2%
- viability, T/C [4]: 69.6%
- viability, T/C [5]: 60.4%
- viability, T/C [6]: 37.4%
- viability, T/C [7]: 107%
- viability, T/C [8]: 82.7%
- viability, T/C [9]: 84.6%
- viability, T/C [10]: 62.7%
- viability, T/C [11]: 56.7%
- viability, T/C [12]: 37%
- viability, T/C [13]: 110%
- viability, T/C [14]: 88.9%
- viability, T/C [15]: 73.9%
- viability, T/C [16]: 71.2%
- viability, T/C [17]: 55.1%
- viability, T/C [18]: 38.8%
- viability, T/C [19]: 96.3%
- viability, T/C [20]: 90.3%
- viability, T/C [21]: 78.5%
- viability, T/C [22]: 64.5%
- viability, T/C [23]: 60.3%
- viability, T/C [24]: 37%
- viability, T/C [25]: 103%
- viability, T/C [26]: 89.4%
- viability, T/C [27]: 79.6%
- viability, T/C [28]: 65.1%
- viability, T/C [29]: 64.8%
- viability, T/C [30]: 35.2%
- viability, T/C [31]: 99.5%
- viability, T/C [32]: 75.7%
- viability, T/C [33]: 68.8%
- viability, T/C [34]: 63%
- viability, T/C [35]: 66.5%
- viability, T/C [36]: 23.8%

- IC50 (second compound 0.0316 µM): > 1 µM
- IC50 (second compound 0.1 µM): > 1 µM
- IC50 (second compound 0.316 µM): > 1 µM
- IC50 (second compound 1 µM): > 1 µM
- IC50 (second compound 3.16 µM): > 1 µM
- IC50 (second compound 10 µM): > 1 µM
SMILES: O=C(c1ccc(F)c(F)c1Nc1ccc(I)cc1F)N1CC(O)([C@@H]2CCCCN2)C1 + C#Cc1c(F)ccc2cc(O)cc(-c3ncc4c(N5CC6CCC(C5)N6)nc(OCC56CCCN5CC(F)C6)nc4c3F)c12
- viability, T/C (second compound 0.0316 µM, first compound 0.00316 µM): 119%
- viability, T/C (second compound 0.0316 µM, first compound 0.01 µM): 102%
- viability, T/C [1]: 102%
- viability, T/C [2]: 81.9%
- viability, T/C [3]: 77.9%
- viability, T/C [4]: 58%
- viability, T/C (second compound 0.1 µM, first compound 0.00316 µM): 110%
- viability, T/C (second compound 0.1 µM, first compound 0.01 µM): 107%
- viability, T/C [7]: 91.5%
- viability, T/C [8]: 92.8%
- viability, T/C [9]: 82.3%
- viability, T/C [10]: 57.1%
- viability, T/C (second compound 0.316 µM, first compound 0.00316 µM): 108%
- viability, T/C (second compound 0.316 µM, first compound 0.01 µM): 104%
- viability, T/C [13]: 94.9%
- viability, T/C [14]: 84.7%
- viability, T/C [15]: 74%
- viability, T/C [16]: 62.9%
- viability, T/C (second compound 1 µM, first compound 0.00316 µM): 105%
- viability, T/C (second compound 1 µM, first compound 0.01 µM): 116%
- viability, T/C [19]: 87.9%
- viability, T/C [20]: 93.7%
- viability, T/C [21]: 77.7%
- viability, T/C [22]: 58.1%
- viability, T/C (second compound 3.16 µM, first compound 0.00316 µM): 110%
- viability, T/C (second compound 3.16 µM, first compound 0.01 µM): 103%
- viability, T/C [25]: 92.8%
- viability, T/C [26]: 86.5%
- viability, T/C [27]: 75.7%
- viability, T/C [28]: 62.9%
- viability, T/C (second compound 10 µM, first compound 0.00316 µM): 102%
- viability, T/C (second compound 10 µM, first compound 0.01 µM): 84.4%
- viability, T/C [31]: 82.8%
- viability, T/C [32]: 85.6%
- viability, T/C [33]: 78.9%
- viability, T/C [34]: 63.8%
